Source: ChEMBL document CHEMBL6092179, “Discovery of CLKs inhibitors for the treatment of non-small cell lung cancer” (Eur J Med Chem, 2024)
The source made the active and inactive calls. The calls are words filed in the database; no cut-off is given here.

Assays:
[1] = test system: NCI-H1299; test: Induction of apoptosis in human NCI-H1299 cells assessed as downregulation of BCL-2 expression at 0.1 to 1 uM incubated for 48 hrs by Western blotting analysis; format: functional, cell-based; settings: dose 0.1-1 µM
[2] = test system: NCI-H1299; test: Induction of apoptosis in human NCI-H1299 cells assessed as downregulation of ERK expression incubated for 48 hrs by Western blotting analysis; format: functional, cell-based
[3] = test system: NCI-H1299; test: Inhibition of Wnt pathway in human NCI-H1299 cells assessed as downregulation of c-Myc expression at 0.1 to 1 uM incubated for 48 hrs by Western blotting analysis; format: cell-based; settings: dose 0.1-1 µM
[4] = target: Serine/threonine-protein kinase mTOR (Homo sapiens) (UniProt P42345); test: Inhibition of mTOR phosphorylation in human NCI-H1299 cells at 0.1 to 1 uM incubated for 12 hrs by Western blotting analysis; format: cell-based; settings: dose 0.1-1 µM
[5] = test system: NCI-H1299; test: Induction of apoptosis in human NCI-H1299 cells assessed as viable cells at 2.5 uM incubated for 24 hrs by annexin V-FITC/PI staining based flow cytometric analysis (reference value: 95 %); format: functional; settings: read-out: Activity
[6] = test system: NCI-H1299; test: Induction of autophagy in human NCI-H1299 cells assessed as downregulation of p62 expression at 0.1 to 1 uM incubated for 48 hrs by Western blotting analysis; format: functional, cell-based; settings: dose 0.1-1 µM
[7] = target: Dual specificity protein kinase CLK3 (Homo sapiens, UniProt P49761); test: Inhibition of CLK3 (unknown origin) at 100 nM by ADP-Glo assay relative to control
Chain of Dual specificity protein kinase CLK3 (P49761 whole entry, looked up): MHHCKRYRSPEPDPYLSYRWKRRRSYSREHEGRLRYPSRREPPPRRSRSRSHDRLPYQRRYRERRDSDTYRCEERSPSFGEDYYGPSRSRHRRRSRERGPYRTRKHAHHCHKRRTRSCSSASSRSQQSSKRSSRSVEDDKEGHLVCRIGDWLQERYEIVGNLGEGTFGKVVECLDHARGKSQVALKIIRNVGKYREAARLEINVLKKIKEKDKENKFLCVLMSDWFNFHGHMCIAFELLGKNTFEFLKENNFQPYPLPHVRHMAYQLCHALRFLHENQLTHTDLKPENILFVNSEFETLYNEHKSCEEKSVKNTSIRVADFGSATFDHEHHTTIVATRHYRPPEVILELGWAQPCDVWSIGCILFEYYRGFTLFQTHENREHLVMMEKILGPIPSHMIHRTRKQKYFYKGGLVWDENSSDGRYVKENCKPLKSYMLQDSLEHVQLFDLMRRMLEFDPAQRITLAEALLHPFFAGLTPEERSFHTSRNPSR

[8] = test system: Osimertinib-resistant NCI-H1975 cell; test: cells; settings: Homo sapiens, 48 h
Description: Antiproliferative activity against human Osimertinib-resistant NCI-H1975 cell assessed as inhibition of cell growth incubated for 48 hrs by MTT assay

[9] = test system: NCI-H1299; test: Inhibition of Wnt pathway in human NCI-H1299 cells assessed as downregulation of beta-catenin phosphorylation at 0.1 to 1 uM incubated for 12 hrs by Western blotting analysis; format: cell-based; settings: dose 0.1-1 µM
[10] = test system: NCI-H1299; test: Inhibition of Wnt pathway in human NCI-H1299 cells assessed as downregulation of Axin2 expression at 0.1 to 1 uM incubated for 48 hrs by Western blotting analysis; format: cell-based; settings: dose 0.1-1 µM
[11] = test system: NCI-H1299; test: Induction of apoptosis in human NCI-H1299 cells assessed as necrotic cells at 2.5 uM incubated for 24 hrs by annexin V-FITC/PI staining based flow cytometric analysis (reference value: 2.28 %); format: functional
[12] = test system: NCI-H1299; test: Induction of apoptosis in human NCI-H1299 cells assessed as necrotic cells at 1 uM incubated for 24 hrs by annexin V-FITC/PI staining based flow cytometric analysis (reference value: 2.28 %); format: functional
[13] = target: Dual specificity protein kinase CLK1 (Homo sapiens, UniProt P49759); test: Inhibition of CLK1 (unknown origin) at 100 nM by ADP-Glo assay relative to control
Chain of Dual specificity protein kinase CLK1 (P49759 whole entry, looked up): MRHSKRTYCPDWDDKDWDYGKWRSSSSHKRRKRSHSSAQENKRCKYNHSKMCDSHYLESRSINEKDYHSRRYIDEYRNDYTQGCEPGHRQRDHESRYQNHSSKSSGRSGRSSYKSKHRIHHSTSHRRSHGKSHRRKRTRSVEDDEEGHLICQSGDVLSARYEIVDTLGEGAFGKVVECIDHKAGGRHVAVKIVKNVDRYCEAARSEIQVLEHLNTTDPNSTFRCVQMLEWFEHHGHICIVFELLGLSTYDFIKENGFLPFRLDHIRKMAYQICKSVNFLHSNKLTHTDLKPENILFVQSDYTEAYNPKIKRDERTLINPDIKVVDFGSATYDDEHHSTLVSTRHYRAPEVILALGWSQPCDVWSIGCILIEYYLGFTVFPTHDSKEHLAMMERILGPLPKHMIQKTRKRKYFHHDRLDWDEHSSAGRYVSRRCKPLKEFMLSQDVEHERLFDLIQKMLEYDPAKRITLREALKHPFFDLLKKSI

[14] = target: Homeodomain-interacting protein kinase 1 (Homo sapiens) (UniProt Q86Z02); test: Inhibition of HIPK1 (unknown origin) at 100 nM by ADP-Glo assay relative to control
Chain of Homeodomain-interacting protein kinase 1 (Homo sapiens) (Q86Z02 whole entry, looked up): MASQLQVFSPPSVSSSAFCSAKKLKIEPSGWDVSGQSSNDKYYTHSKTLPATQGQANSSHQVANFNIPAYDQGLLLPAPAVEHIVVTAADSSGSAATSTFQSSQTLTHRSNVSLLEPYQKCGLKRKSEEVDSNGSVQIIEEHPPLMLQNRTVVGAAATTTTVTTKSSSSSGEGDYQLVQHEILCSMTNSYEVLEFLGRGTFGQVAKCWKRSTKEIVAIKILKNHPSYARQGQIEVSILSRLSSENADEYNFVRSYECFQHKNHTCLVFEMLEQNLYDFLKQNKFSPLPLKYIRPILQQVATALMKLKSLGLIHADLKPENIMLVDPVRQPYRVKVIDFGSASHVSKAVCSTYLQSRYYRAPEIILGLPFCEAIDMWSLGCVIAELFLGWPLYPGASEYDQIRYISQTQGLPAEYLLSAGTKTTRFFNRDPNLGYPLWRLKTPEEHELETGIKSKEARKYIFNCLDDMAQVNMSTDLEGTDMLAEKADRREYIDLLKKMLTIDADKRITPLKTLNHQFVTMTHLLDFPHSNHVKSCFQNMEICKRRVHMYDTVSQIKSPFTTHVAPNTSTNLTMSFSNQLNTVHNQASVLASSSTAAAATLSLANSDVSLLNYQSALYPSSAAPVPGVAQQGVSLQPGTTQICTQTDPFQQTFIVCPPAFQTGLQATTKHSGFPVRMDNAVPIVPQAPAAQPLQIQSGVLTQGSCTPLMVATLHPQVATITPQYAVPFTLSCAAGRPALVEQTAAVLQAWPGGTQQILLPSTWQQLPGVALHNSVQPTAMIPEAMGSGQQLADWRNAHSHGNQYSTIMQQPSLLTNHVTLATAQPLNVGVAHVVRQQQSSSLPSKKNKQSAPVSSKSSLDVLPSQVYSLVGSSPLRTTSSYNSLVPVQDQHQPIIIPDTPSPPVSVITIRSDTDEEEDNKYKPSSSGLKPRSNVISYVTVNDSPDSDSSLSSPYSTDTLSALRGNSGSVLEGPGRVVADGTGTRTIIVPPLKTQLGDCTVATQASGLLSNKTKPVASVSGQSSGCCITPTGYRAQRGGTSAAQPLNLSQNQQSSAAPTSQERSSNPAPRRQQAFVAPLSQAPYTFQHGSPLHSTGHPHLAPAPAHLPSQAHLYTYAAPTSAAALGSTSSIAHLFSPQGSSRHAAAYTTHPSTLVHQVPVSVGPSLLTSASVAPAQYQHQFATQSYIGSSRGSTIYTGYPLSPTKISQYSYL

[15] = test system: NCI-H1299; test: Induction of apoptosis in human NCI-H1299 cells assessed as late apoptotic cells at 0.1 uM incubated for 24 hrs by annexin V-FITC/PI staining based flow cytometric analysis (reference value: 2.23 %); format: functional
[16] = cells; settings: Homo sapiens, Osimertinib-resistant HCC827AR cell, 48 h
Description: Antiproliferative activity against human Osimertinib-resistant HCC827AR cell assessed as inhibition of cell growth incubated for 48 hrs by MTT assay

[17] = test system: NCI-H1299; test: Induction of apoptosis in human NCI-H1299 cells assessed as downregulation of AKT expression incubated for 12 hrs by Western blotting analysis; format: functional, cell-based

inhibition [4]: Active
inhibition [7]: 103%
IC50 [8]: 210 nM
inhibition [13]: 98.1%
inhibition [14]: 51.4%
IC50 [16]: 220 nM
Structure (SMILES): FC1(F)CCN(Cc2cncc(-c3ccc4[nH]nc(-c5nc(-c6ccco6)c(-c6ccco6)[nH]5)c4c3)c2)C1
Activity [1]: Active
Activity [2]: Dose-dependent-effect
inhibition [3]: Active
viability at 2.5 µM [5]: 82%
Activity [6]: Active
inhibition [9]: Active
inhibition [10]: Active
Activity [11]: 1.6%
Activity [12]: 0.74%
Activity [15]: 1.26%
Activity [17]: Dose-dependent-effect
